Source: US10988478B1, “Pyrazolo[1,5a]pyrimidine derivatives as IRAK4 modulators” (Genentech, Inc., priority 2015, dated 2021)
pKi: −log10 of the molar value.

Molecular target: human IRAK4 (Homo sapiens (Human), UniProt Q9NWZ3)
Assay: IRAK4 kinase inhibition, Transcreener fluorescence polarization ADP assay
Format: biochemical
Settings: recombinant full-length His6-IRAK4; 125 uM ATP; 90 min; Ki computed using ATP Km 642 uM
Protocol: Compounds were assayed for inhibition of human IRAK4 and IRAK1 catalytic activity using recombinant enzyme produced from insect cells. Full-length IRAK4 protein, carrying an N-terminal His6-Tag, was obtained from Life Technologies (Carlsbad, Calif., USA). The IRAK1 construct was produced internally and was comprised of IRAK1 residues Arg194 to Ser712, preceded by an NH2-terminal His6 tag and the coding sequence for glutathione-S-transferase.

Chain of human IRAK4 (Q9NWZ3 whole entry): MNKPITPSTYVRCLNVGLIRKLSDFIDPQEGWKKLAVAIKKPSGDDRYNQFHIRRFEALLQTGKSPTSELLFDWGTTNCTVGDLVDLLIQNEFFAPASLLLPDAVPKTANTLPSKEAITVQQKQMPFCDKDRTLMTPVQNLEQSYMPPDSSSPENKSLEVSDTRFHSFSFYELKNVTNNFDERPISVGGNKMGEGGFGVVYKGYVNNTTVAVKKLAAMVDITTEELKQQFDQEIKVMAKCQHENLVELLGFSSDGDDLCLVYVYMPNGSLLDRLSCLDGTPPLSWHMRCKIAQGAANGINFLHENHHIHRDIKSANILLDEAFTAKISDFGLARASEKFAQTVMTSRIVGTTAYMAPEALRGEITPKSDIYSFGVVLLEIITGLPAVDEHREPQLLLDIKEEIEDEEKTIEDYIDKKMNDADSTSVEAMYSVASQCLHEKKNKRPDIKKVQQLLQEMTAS

| Structure (SMILES) | pKi |
| --- | --- |
| CC(C)(O)[C@@]1(C)Cc2cc(NC(=O)c3cnn4cccnc34)c(N3CCN(CC(N)=O)CC3)cc2O1 [Example 525, N-[(2R)-6-[4-(2-amino-2-oxo-ethyl)piperazin-1-yl]-2-(1-hydroxy-1-methyl-ethyl)-2-methyl-3H-benzofuran-5-yl]pyrazolo[1,5-a]pyrimidine-3-carboxamide] | 8.38 |
| CC1(C)Cc2cc(NC(=O)c3cnn4cccnc34)c(N3CCC(C(N)=O)CC3)cc2O1 [Example 531, N-[6-(4-carbamoyl-1-piperidyl)-2,2-dimethyl-3H-benzofuran-5-yl]pyrazolo[1,5-a]pyrimidine-3-carboxamide] | 8.49 |
| CN(C)C1CCN(c2cc3c(cc2NC(=O)c2cnn4cccnc24)CC(C)(C)O3)CC1 [Example 532, N-[6-[4-(dimethylamino)-1-piperidyl]-2,2-dimethyl-3H-benzofuran-5-yl]pyrazolo[1,5-a]pyrimidine-3-carboxamide] | 8.14 |
| CC1(C)Cc2cc(NC(=O)c3cnn4cccnc34)c(N3CCNCC3)cc2O1 [Example 533, N-(2,2-dimethyl-6-piperazin-1-yl-3H-benzofuran-5-yl)pyrazolo[1,5-a]pyrimidine-3-carboxamide] | 7.89 |
| CC1(C)Cc2cc(NC(=O)c3cnn4cccnc34)c(N3CCC(F)(C(N)=O)CC3)cc2O1 [Example 534, N-[6-(4-carbamoyl-4-fluoro-1-piperidyl)-2,2-dimethyl-3H-benzofuran-5-yl]pyrazolo[1,5-a]pyrimidine-3-carboxamide] | 8.70 |
| CC1(CC(N)=O)CCN(c2cc3c(cc2NC(=O)c2cnn4cccnc24)CC(C)(C)O3)CC1 [Example 535, N-[6-[4-(2-Amino-2-oxo-ethyl)-4-methyl-1-piperidyl]-2,2-dimethyl-3H-benzofuran-5-yl]pyrazolo[1,5-a]pyrimidine-3-carboxamide] | 8.51 |
| CC1(C)Cc2cc(NC(=O)c3cnn4cccnc34)c(N3CCC(O)(CC(N)=O)CC3)cc2O1 [Example 536, N-[6-[4-(2-amino-2-oxo-ethyl)-4-hydroxy-1-piperidyl]-2,2-dimethyl-3H-benzofuran-5-yl]pyrazolo[1,5-a]pyrimidine-3-carboxamide] | 8.51 |
| CN(C)c1cc2c(cc1NC(=O)c1cnn3cccnc13)CC(C)(C)O2 [Example 537, N-(6-(dimethylamino)-2,2-dimethyl-2,3-dihydrobenzofuran-5-yl)pyrazolo[1,5-a]pyrimidine-3-carboxamide] | 7.92 |
| Cn1cnc(COc2cc3c(cc2NC(=O)c2cnn4cccnc24)CC(C)(C)O3)c1 [Example 538, N-(2,2-dimethyl-6-((1-methyl-1H-imidazol-4-yl)methoxy)-2,3-dihydrobenzofuran-5-yl)pyrazolo[1,5-a]pyrimidine-3-carboxamide] | 6.66 |
| CC1(C)Cc2cc(NC(=O)c3cnn4cccnc34)c(OCc3c[nH]cn3)cc2O1 [Example 539, N-[6-(1H-Imidazol-4-ylmethoxy)-2,2-dimethyl-3H-benzofuran-5-yl]pyrazolo[1,5-a]pyrimidine-3-carboxamide] | 7.48 |
| CC1(C)Cc2cc(NC(=O)c3cnn4cccnc34)c(OC[C@H]3CCC(=O)N3)cc2O1 [Example 540, N-[2,2-dimethyl-6-[[(2R)-5-oxopyrrolidin-2-yl]methoxy]-3H-benzofuran-5-yl]pyrazolo[1,5-a]pyrimidine-3-carboxamide] | 7.13 |
| CC1(C)Cc2cc(NC(=O)c3cnn4cccnc34)c(OC[C@@H]3CCC(=O)N3)cc2O1 [Example 541, N-[2,2-dimethyl-6-[[(2S)-5-oxopyrrolidin-2-yl]methoxy]-3H-benzofuran-5-yl]pyrazolo[1,5-a]pyrimidine-3-carboxamide] | 6.72 |
| Cc1cc(COc2cc3c(cc2NC(=O)c2cnn4cccnc24)CC(C)(C)O3)n[nH]1 [Example 542, N-[2,2-Dimethyl-6-[(5-methyl-1H-pyrazol-3-yl)methoxy]-3H-benzofuran-5-yl]pyrazolo[1,5-a]pyrimidine-3-carboxamide] | 7.23 |
| CC(C)(O)[C@H]1CC[C@@H](N2Cc3cc(NC(=O)c4cnn5cccnc45)c(N4CCOCC4)cc3C2=O)CC1 [Example 547, Cis-N-[2-[4-(1-Hydroxy-1-methyl-ethyl)cyclohexyl]-6-morpholino-1-oxo-isoindolin-5-yl]pyrazolo[1,5-a]pyrimidine-3-carboxamide] | 7.42 |
| CC(C)(O)[C@H]1CC[C@H](N2Cc3cc(NC(=O)c4cnn5cccnc45)c(N4CCOCC4)cc3C2=O)CC1 [Example 548, trans-N-[2-[4-(1-Hydroxy-1-methyl-ethyl)cyclohexyl]-6-morpholino-1-oxo-isoindolin-5-yl]pyrazolo[1,5-a]pyrimidine-3-carboxamide] | 8.54 |
| C[C@@H](CN1Cc2cc(NC(=O)c3cnn4cccnc34)c(N3CCOCC3)cc2C1=O)N1CCOCC1 [Example 551, N-[6-morpholino-2-[(2S)-2-morpholinopropyl]-1-oxo-isoindolin-5-yl]pyrazolo[1,5-a]pyrimidine-3-carboxamide] | 8.54 |

| Structure (SMILES) | pKi |
| --- | --- |
| C[C@H](CN1Cc2cc(NC(=O)c3cnn4cccnc34)c(N3CCOCC3)cc2C1=O)N1CCOCC1 [Example 552, N-[6-morpholino-2-[(2R)-2-morpholinopropyl]-1-oxo-isoindolin-5-yl]pyrazolo[1,5-a]pyrimidine-3-carboxamide] | 7.92 |
| CN1CC[C@@H](N2Cc3cc(NC(=O)c4cnn5cccnc45)c(N4CCOCC4)cc3C2=O)C1=O [Example 553, N-[2-[(3R)-1-methyl-2-oxo-pyrrolidin-3-yl]-6-morpholino-1-oxo-isoindolin-5-yl]pyrazolo[1,5-a]pyrimidine-3-carboxamide] | 7.24 |
| CN1CC[C@H](N2Cc3cc(NC(=O)c4cnn5cccnc45)c(N4CCOCC4)cc3C2=O)C1=O [Example 554, N-[2-[(3S)-1-methyl-2-oxo-pyrrolidin-3-yl]-6-morpholino-1-oxo-isoindolin-5-yl]pyrazolo[1,5-a]pyrimidine-3-carboxamide] | 7.85 |
| O=C(Nc1cc2c(cc1N1CCOCC1)C(=O)N(C[C@H]1CCOC1)C2)c1cnn2cccnc12 [Example 556, N-[6-morpholino-1-oxo-2-[[(3R)-tetrahydrofuran-3-yl]methyl]isoindolin-5-yl]pyrazolo[1,5-a]pyrimidine-3-carboxamide] | 8.35 |
| C[C@H](O)[C@H](F)CN1Cc2cc(NC(=O)c3cnn4cccnc34)c(N3CCOCC3)cc2C1=O [Example 557, N-[2-[(2R,2S)-2-fluoro-3-hydroxy-butyl]-6-morpholino-1-oxo-isoindolin-5-yl]pyrazolo[1,5-a]pyrimidine-3-carboxamide] | 8.14 |
| C[C@@H](O)[C@@H](F)CN1Cc2cc(NC(=O)c3cnn4cccnc34)c(N3CCOCC3)cc2C1=O [Example 558, N-[2-[(2S,3R)-2-fluoro-3-hydroxy-butyl]-6-morpholino-1-oxo-isoindolin-5-yl]pyrazolo[1,5-a]pyrimidine-3-carboxamide] | 8.08 |
| O=C(Nc1cc2c(cc1N1CCOCC1)C(=O)N(C[C@@H]1CCC[C@@H]1O)C2)c1cnn2cccnc12 [Example 559, N-[2-[[(1S,2S)-2-hydroxycyclopentyl]methyl]-6-morpholino-1-oxo-isoindolin-5-yl]pyrazolo[1,5-a]pyrimidine-3-carboxamide] | 8.66 |
| O=C(Nc1cc2c(cc1N1CCOCC1)C(=O)N(C[C@H]1CCC[C@H]1O)C2)c1cnn2cccnc12 [Example 560, N-[2-[[(1R,2R)-2-hydroxycyclopentyl]methyl]-6-morpholino-1-oxo-isoindolin-5-yl]pyrazolo[1,5-a]pyrimidine-3-carboxamide] | 8.80 |
| C[C@H](O)[C@@H](F)CN1Cc2cc(NC(=O)c3cnn4cccnc34)c(N3CCOCC3)cc2C1=O [Example 561, N-(2-((2S,3S)-2-fluoro-3-hydroxybutyl)-6-morpholino-1-oxoisoindolin-5-yl)pyrazolo[1,5-a]pyrimidine-3-carboxamide] | 7.96 |
| C[C@@H](O)[C@H](F)CN1Cc2cc(NC(=O)c3cnn4cccnc34)c(N3CCOCC3)cc2C1=O [Example 562, N-(2-((2R,3R)-2-fluoro-3-hydroxybutyl)-6-morpholino-1-oxoisoindolin-5-yl)pyrazolo[1,5-a]pyrimidine-3-carboxamide] | 8.72 |
| CC(C)(O)[C@H](F)CN1Cc2cc(NC(=O)c3cnn4cccnc34)c(N3CCC3)cc2C1=O [Example 563, N-[6-(azetidin-1-yl)-2-[(2R)-2-fluoro-3-hydroxy-3-methyl-butyl]-1-oxo-isoindolin-5-yl]pyrazolo[1,5-a]pyrimidine-3-carboxamide] | 7.48 |
| O=C(Nc1cc2c(cc1N1CCOCC1)C(=O)N([C@H]1CCC[C@H]1CO)C2)c1cnn2cccnc12 [Example 564, N-(2-((1S,2R)-2-(hydroxymethyl)cyclopentyl)-6-morpholino-1-oxoisoindolin-5-yl)pyrazolo[1,5-a]pyrimidine-3-carboxamide] | 7.55 |
| O=C(Nc1cc2c(cc1N1CCOCC1)C(=O)N([C@@H]1CCC[C@@H]1CO)C2)c1cnn2cccnc12 [Example 565, N-(2-((1R,2S)-2-(hydroxymethyl)cyclopentyl)-6-morpholino-1-oxoisoindolin-5-yl)pyrazolo[1,5-a]pyrimidine-3-carboxamide] | 7.03 |
| O=C(Nc1cc2c(cc1N1CCOCC1)C(=O)N([C@H]1CCC[C@@H]1CO)C2)c1cnn2cccnc12 [Example 566, N-(2-((1S,2S)-2-(hydroxymethyl)cyclopentyl)-6-morpholino-1-oxoisoindolin-5-yl)pyrazolo[1,5-a]pyrimidine-3-carboxamide] | 8.10 |
| O=C(Nc1cc2c(cc1N1CCOCC1)C(=O)N([C@@H]1CCC[C@H]1CO)C2)c1cnn2cccnc12 [Example 567, N-(2-((1R,2R)-2-(hydroxymethyl)cyclopentyl)-6-morpholino-1-oxoisoindolin-5-yl)pyrazolo[1,5-a]pyrimidine-3-carboxamide] | 8.23 |
